Experiment: Ability to inhibit calf thymus topoisomerase I when assayed in the cleavable complex formation

SMILES	IC50 [nM]
CC[C@@]1(O)C(=O)OCc2c1cc1n(c2=O)Cc2cc3cc4ncoc4cc3nc2-1 [7-ethyl-7-hydroxy-(7S)-7,8,11,13-tetrahydro-10H-[1,3]oxazolo[4,5-g]pyrano[3',4':6,7]indolizino[1,2-b]quinoline-8,11-dione]	150
CC[C@@]1(O)C(=O)OCc2c1cc1n(c2=O)Cc2cc3cc(N)c(O)cc3nc2-1 [(S)-9-Amino-4-ethyl-4,8-dihydroxy-1,12-dihydro-4H-2-oxa-6,12a-diaza-dibenzo[b,h]fluorene-3,13-dione]	170

— BindingDB's records for doi:10.1016/0960-894X(95)00360-6 (1995)
